Source: patent US20230321054A1, “COMPOSITIONS AND METHODS FOR CANCER AND TUMOR TREATMENT” (Washington University, priority 2022, published 2023)
“Also recorded” adds a separate entry of the source.

What was measured:
[1] = system: tumor-liver alanine cycle; assay: [U-13C] glucose isotope tracing / LC/MS metabolomics in drug-treated BRAF/p53 zebrafish (tumor-liver alanine cycling); format: in vivo
Method: For all isotope tracing experiments, zebrafish were fasted for 24 h to empty the digestive tract prior to labeling. […] During steady-state labeling experiments, zebrafish were allowed to swim freely in facility water containing the corresponding stable isotopes at the aforementioned concentrations, in addition to 2% penicillin/streptomycin (Life Technologies). For isotope tracing via intraperitoneal injection, zebrafish were injected using a previously described method. Briefly, anesthetized fish were quickly dried and weighed. Zebrafish were then placed into the trough of a wet precut sponge, with the abdomen facing up and gills secured in the trough. A 35G beveled needle and NanoFil 10 µL syringe (World Precision Instruments) was carefully inserted midline near the pelvic girdle, and a [U-^13C] glucose treatment solution (0.5 mg/g) was slowly dispensed. After injection, fish were placed in 28° C. facility water and monitored for recovery from anesthesia (typically 5-10 seconds). Throughout the experiment, each fish was kept in an individual tank to allow for tracking.
To extract metabolites from serum, samples were diluted 1:15 with methanol:acetonitrile:water (2:2:1) at -20° C., vortexed for 10 s, and incubated at -20° C. for 1 h. Following incubation, metabolite extracts were centrifuged at 20,000 g and 4° C. for 10 min, and the supernatant was transferred into an LC/MS vial for same-day analysis. To extract metabolites from zebrafish tissues, frozen samples were ground in 1.5 mL microcentrifuge tubes with a disposable pellet pestle (Fisherbrand). The pellet pestle was placed in liquid nitrogen prior to sample grinding, and the microcentrifuge tube (containing tissue) was submerged in liquid nitrogen for the entirety of tissue grinding. […] The powderized tissue was mixed with -20° C. methanol:acetonitrile:water (2:2:1) and subjected to two cycles of freezing in liquid nitrogen (1 min), thawing in 25° C. water (10 s), sonication (5 min), and vortexing (30 s). Samples were then incubated at -20° C. for 1 h. […]

[2] = humans, mice, and zebrafish; cited from earlier work
[3] = system: melanoma tumors of BRAF/p53 zebrafish; assay: Tumor size by digital calipers in melanoma-bearing BRAF/p53 zebrafish; format: in vivo
Method: Wild-type (WT) fish were inbred AB strain (sjA). p53-/- and transgenic mitfa-BRAFV600E¬ lines were crossed to produce melanoma-bearing fish (referred to as BRAF/p53), using a previously described method. All fish were reared according to standard laboratory procedures. Fish were kept in an indoor environment at a temperature of 28 ± 1° C. with a 14:10-h light:dark circadian cycle. Both female and male fish were used for experiments at random. Experiments were conducted with age-matched animals (i.e., within 2 weeks of age). To assay tumor growth, melanoma dimensions were measured by using digital calipers. Tumor size was approximated as the volume of a half ellipsoid, ⅔ πabc, where a, b, and c represent the radii of tumor length, width, and height respectively.
Vemurafenib was dissolved in DMSO, and vemurafenib solution or DMSO alone (vehicle) was delivered via intraperitoneal injection following a previously described protocol detailed above. Throughout the experiment, each fish was kept in an individual tank to allow for tracking. […]

[4] = system: alanine cycling in WT zebrafish; assay: [U-13C] glucose isotope tracing in vemurafenib-treated WT zebrafish; format: in vivo; conditions: 100 mg/kg/day, 4 consecutive days, vs vehicle
Method: For all isotope tracing experiments, zebrafish were fasted for 24 h to empty the digestive tract prior to labeling. To determine the [U-^13C] glucose concentration for isotopic steady-state labeling, concentrations between 5 - 20 mM were tested. […] Similarly, concentrations between 1 - 10 mM of [U-^13C] glutamine were tested for steady-state labeling. […] For ^15N-BCAA labeling experiments, 2 mM each [^15N] leucine, [^15N] isoleucine, and [^15N] valine were concurrently supplemented to facility water. For ^13C-BCAA labeling experiments, 4 mM each of [U-^13C] leucine, [U-^13C] isoleucine, and [U-^13C] valine were concurrently supplemented to facility water. During steady-state labeling experiments, zebrafish were allowed to swim freely in facility water containing the corresponding stable isotopes at the aforementioned concentrations, in addition to 2% penicillin/streptomycin (Life Technologies). For isotope tracing via intraperitoneal injection, zebrafish were injected using a previously described method. Briefly, anesthetized fish were quickly dried and weighed. Zebrafish were then placed into the trough of a wet precut sponge, with the abdomen facing up and gills secured in the trough. […] After injection, fish were placed in 28° C. facility water and monitored for recovery from anesthesia (typically 5-10 seconds). […]

[5] = system: alanine aminotransferase (ALT); assay: [U-13C] BCAA labeling and metabolite pool sizes after ALT inhibition in BRAF/p53 zebrafish; format: in vivo; conditions: 600 µM in water, 10 days, vs vehicle
Method: For all isotope tracing experiments, zebrafish were fasted for 24 h to empty the digestive tract prior to labeling. To determine the [U-^13C] glucose concentration for isotopic steady-state labeling, concentrations between 5 - 20 mM were tested. […] Similarly, concentrations between 1 - 10 mM of [U-^13C] glutamine were tested for steady-state labeling. […] For ^15N-BCAA labeling experiments, 2 mM each [^15N] leucine, [^15N] isoleucine, and [^15N] valine were concurrently supplemented to facility water. For ^13C-BCAA labeling experiments, 4 mM each of [U-^13C] leucine, [U-^13C] isoleucine, and [U-^13C] valine were concurrently supplemented to facility water. During steady-state labeling experiments, zebrafish were allowed to swim freely in facility water containing the corresponding stable isotopes at the aforementioned concentrations, in addition to 2% penicillin/streptomycin (Life Technologies). For isotope tracing via intraperitoneal injection, zebrafish were injected using a previously described method. Briefly, anesthetized fish were quickly dried and weighed. Zebrafish were then placed into the trough of a wet precut sponge, with the abdomen facing up and gills secured in the trough. A 35G beveled needle and NanoFil 10 µL syringe (World Precision Instruments) was carefully inserted midline near the pelvic girdle, and a [U-^13C] glucose treatment solution (0.5 mg/g) was slowly dispensed. After injection, fish were placed in 28° C. facility water and monitored for recovery from anesthesia (typically 5-10 seconds). Throughout the experiment, each fish was kept in an individual tank to allow for tracking.
To extract metabolites from serum, samples were diluted 1:15 with methanol:acetonitrile:water (2:2:1) at -20° C., vortexed for 10 s, and incubated at -20° C. for 1 h. Following incubation, metabolite extracts were centrifuged at 20,000 g and 4° C. for 10 min, and the supernatant was transferred into an LC/MS vial for same-day analysis. To extract metabolites from zebrafish tissues, frozen samples were ground in 1.5 mL microcentrifuge tubes with a disposable pellet pestle (Fisherbrand). The pellet pestle was placed in liquid nitrogen prior to sample grinding, and the microcentrifuge tube (containing tissue) was submerged in liquid nitrogen for the entirety of tissue grinding. We note that microcentrifuge tubes were labeled and weighed prior to tissue harvest and then weighed again following tissue grinding. The powderized tissue was mixed with -20° C. methanol:acetonitrile:water (2:2:1) and subjected to two cycles of freezing in liquid nitrogen (1 min), thawing in 25° C. water (10 s), sonication (5 min), and vortexing (30 s). Samples were then incubated at -20° C. for 1 h. For every 1 mg of tissue wet weight, 40 µL of extraction solvent was added. Following protein precipitation, tissue extracts were centrifuged at 20,000 g and 4° C. for 10 min, and the supernatant was transferred into an LC/MS vial for same-day analysis.
Ultra-high performance LC (UHPLC)/MS was performed with a Thermo Scientific Vanquish Horizon UHPLC system interfaced with a Thermo Scientific Orbitrap ID-X Tribrid Mass Spectrometer (Waltham, MA). Hydrophilic interaction liquid chromatography (HILIC) was conducted with a SeQuant ZIC-pHILIC guard column (20 mm × 2.1 mm, 5 µm) connected to a SeQuant ZIC-pHILIC column (100 mm × 2.1 mm, 5 µm; EMD Millipore, Burlington, MA). Chromatographic solvents were adapted from a previously described work. […]

[6] = 50 µM in tank water, 6 days, vs DMSO

CCN(c1nc(N)c(C(=O)N=C(N)N)nc1Cl)C(C)C [EIPA, 5-(N-ethyl-N-isopropyl)amiloride]
alanine labeling in the tumor [1, 6]: did not affect | hepatic gluconeogenesis (M3 labeling of glucose in the liver and serum) [1, 6]: did not affect

CCCS(=O)(=O)Nc1ccc(F)c(C(=O)c2c[nH]c3ncc(-c4ccc(Cl)cc4)cc23)c1F [vemurafenib]
toxicity and tolerability [2]: minimal toxicity and high tolerability | tumors reduced in size ([3]; 100 mg/kg/day i.p., after 10 days): > 95% | reduction of M3 labeling of alanine in the tumor ([1]; 100 mg/kg/day i.p., 4 days, vs vehicle, 10 mM [U-13C] glucose 24 h): ~ 2 fold | 13C-labeling in metabolites from the circulation, liver, or muscle [4]: No differences; also recorded: does not lead to off-target metabolic effects

N[C@@H](CCl)C(=O)O [β-chloroalanine, β-chloro-L-alanine]
reduction in tumor size ([3]; β-chloroalanine in water, 10 days): 50% | BCAAs in serum (pool size) [5]: accumulation | BCAAs in tumor (pool size) [5]: accumulation | contribution that [U-13C] BCAAs made to the TCA cycle in tumors [5]: significantly reduced | levels of alanine in tumor, serum, and liver [5]: decreased | levels of circulating glucose [5]: decreased
